Experiments:
[1] = molecular target: Ikaros (Homo sapiens, UniProt Q13422+Q96SW2); assay: Helios Cellular Degradation Assay (Ikaros readout); format: cell-based; set-up: endogenous in cells; host or cells: Jurkat; conditions: Jurkat cells, 72 h incubation, Ikaros-Alexa488 antibody staining, flow cytometry; read-out: Ikaros Jurkat IC50
How it was run: (§1)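 Jurkat cells (80,000/well, RPMI+10% FBS) were treated with compound for 72 h at 37° C. After fixation and permeabilization they were stained with fluorescent antibodies to Helios, Ikaros and Aiolos. Intracellular protein levels were quantified by flow cytometry.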

[2] = molecular target: Helios (Homo sapiens, UniProt Q96SW2+Q9UKS7); assay: Helios Cellular Degradation Assay (Helios readout); format: cell-based; set-up: endogenous in cells; host or cells: Jurkat; conditions: Jurkat cells, 72 h incubation, Helios-PE antibody staining, flow cytometry; read-out: Helios Jurkat IC50
Chain of Helios (Q9UKS7 whole entry): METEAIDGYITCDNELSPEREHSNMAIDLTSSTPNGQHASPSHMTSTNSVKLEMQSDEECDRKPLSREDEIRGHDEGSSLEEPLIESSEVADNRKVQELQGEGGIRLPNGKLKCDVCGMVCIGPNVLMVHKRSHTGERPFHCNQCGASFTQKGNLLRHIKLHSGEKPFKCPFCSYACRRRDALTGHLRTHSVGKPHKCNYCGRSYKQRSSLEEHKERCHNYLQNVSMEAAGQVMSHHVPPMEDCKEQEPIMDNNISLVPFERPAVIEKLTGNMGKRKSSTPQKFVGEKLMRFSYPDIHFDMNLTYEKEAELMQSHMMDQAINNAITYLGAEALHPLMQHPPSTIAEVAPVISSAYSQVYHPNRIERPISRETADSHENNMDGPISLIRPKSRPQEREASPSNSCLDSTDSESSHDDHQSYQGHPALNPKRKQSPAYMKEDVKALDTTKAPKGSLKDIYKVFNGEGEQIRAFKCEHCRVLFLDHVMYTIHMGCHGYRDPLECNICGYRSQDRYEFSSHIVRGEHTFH
Chain of Helios (Q96SW2 whole entry): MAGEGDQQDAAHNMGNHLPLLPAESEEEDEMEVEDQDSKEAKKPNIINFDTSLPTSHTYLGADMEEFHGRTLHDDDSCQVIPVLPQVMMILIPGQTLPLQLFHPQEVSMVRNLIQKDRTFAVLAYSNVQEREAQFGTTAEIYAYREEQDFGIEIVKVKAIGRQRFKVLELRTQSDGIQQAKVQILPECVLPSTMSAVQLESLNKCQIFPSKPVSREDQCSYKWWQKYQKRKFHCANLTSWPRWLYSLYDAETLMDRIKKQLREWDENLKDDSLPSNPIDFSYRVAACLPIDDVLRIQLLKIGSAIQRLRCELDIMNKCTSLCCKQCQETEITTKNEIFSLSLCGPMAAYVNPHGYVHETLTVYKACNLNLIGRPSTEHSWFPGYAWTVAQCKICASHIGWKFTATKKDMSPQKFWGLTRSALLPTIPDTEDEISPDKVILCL
Chain of Helios (Q16531 whole entry partner): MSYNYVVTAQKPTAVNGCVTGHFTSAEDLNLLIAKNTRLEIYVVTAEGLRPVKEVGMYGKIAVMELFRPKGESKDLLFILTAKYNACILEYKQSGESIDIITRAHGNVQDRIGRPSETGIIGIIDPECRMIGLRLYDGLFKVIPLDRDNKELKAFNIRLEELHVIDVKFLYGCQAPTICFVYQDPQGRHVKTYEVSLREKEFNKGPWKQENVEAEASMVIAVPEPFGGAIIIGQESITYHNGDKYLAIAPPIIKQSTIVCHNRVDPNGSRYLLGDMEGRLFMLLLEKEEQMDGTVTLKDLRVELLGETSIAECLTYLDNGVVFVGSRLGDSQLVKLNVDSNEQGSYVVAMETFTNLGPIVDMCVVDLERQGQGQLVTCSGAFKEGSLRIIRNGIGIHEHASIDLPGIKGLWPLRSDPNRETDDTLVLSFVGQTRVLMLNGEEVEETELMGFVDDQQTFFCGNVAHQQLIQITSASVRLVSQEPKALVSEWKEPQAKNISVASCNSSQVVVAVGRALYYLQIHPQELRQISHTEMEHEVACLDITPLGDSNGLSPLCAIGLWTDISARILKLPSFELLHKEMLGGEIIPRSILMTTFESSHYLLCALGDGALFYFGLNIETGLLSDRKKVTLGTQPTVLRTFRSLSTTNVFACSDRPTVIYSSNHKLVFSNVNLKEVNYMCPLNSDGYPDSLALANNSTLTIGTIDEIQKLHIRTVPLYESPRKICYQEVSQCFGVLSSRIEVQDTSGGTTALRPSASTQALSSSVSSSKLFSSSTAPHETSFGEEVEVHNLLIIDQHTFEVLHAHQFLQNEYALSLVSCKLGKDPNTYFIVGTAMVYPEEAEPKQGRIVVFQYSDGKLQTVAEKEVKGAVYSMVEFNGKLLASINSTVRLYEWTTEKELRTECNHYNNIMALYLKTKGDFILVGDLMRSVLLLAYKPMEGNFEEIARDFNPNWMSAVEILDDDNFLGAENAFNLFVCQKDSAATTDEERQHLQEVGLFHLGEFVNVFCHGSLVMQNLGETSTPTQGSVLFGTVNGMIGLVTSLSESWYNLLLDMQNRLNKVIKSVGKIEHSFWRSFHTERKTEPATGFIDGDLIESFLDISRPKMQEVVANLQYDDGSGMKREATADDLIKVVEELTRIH
How it was run: as §1

Chain of Ikaros (Q13422 whole entry): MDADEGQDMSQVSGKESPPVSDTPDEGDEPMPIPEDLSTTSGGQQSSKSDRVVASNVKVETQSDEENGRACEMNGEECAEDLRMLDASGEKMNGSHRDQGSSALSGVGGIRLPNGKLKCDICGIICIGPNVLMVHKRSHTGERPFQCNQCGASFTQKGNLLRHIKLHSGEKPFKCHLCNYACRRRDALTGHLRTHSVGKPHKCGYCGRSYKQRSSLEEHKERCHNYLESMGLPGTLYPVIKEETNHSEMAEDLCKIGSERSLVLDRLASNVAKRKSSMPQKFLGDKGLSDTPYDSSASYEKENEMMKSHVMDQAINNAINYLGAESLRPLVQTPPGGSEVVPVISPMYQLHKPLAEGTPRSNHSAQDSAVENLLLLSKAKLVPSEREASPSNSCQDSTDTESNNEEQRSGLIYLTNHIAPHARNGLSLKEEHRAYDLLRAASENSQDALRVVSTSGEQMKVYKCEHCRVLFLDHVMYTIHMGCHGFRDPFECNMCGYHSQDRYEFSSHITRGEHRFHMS
Chain of Ikaros (Q96SW2 whole entry): as the sequence (Q96SW2 whole entry) above
Chain of Ikaros (Q16531 whole entry partner): as the sequence (Q16531 whole entry partner) above

Nc1nc(-c2ccc3c(c2)CN(C2CCC(=O)NC2=O)C3=O)cc2c1CCCC2 (centres unmarked) [Example 150, 3-(5-(1-amino-5,6,7,8-tetrahydroisoquinolin-3-yl)-1-oxoisoindolin-2-yl)piperidine-2,6-dione]
DC50 [1]: ≥ 10000 nM
DC50 [2]: 32 nM

Nc1ccc2c(-c3ccc4c(c3)CN(C3CCC(=O)NC3=O)C4=O)nccc2c1 (centres unmarked) [Example 133, 3-[5-(6-aminoisoquinolin-1-yl)-1-oxo-2,3-dihydro-1H-isoindol-2-yl]piperidine-2,6-dione]
DC50 [1]: ≥ 20000 nM
DC50 [2]: 10 nM

COc1ccc2c(-c3ccc4c(c3)CN(C3CCC(=O)NC3=O)C4=O)nccc2c1 (centres unmarked) [Example 17, 3-[5-(6-methoxyisoquinolin-1-yl)-1-oxo-2,3-dihydro-1H-isoindol-2-yl]piperidine-2,6-dione]
DC50 [1]: 96 nM
DC50 [2]: 14 nM

CCN(CC)c1nc(-c2ccc3c(c2)CN(C2CCC(=O)NC2=O)C3=O)nc2ccc(Cl)cc12 (centres unmarked) [Example 15, 3-{5-[6-chloro-4-(diethylamino)quinazolin-2-yl]-1-oxo-2,3-dihydro-1H-isoindol-2-yl}piperidine-2,6-dione]
DC50 [1]: > 20000 nM
DC50 [2]: > 20000 nM

COc1ccc2nc(-c3ccc4c(c3)CN(C3CCC(=O)NC3=O)C4=O)ccc2c1 (centres unmarked) [Example 29, 3-[5-(6-methoxyquinolin-2-yl)-1-oxo-2,3-dihydro-1H-isoindol-2-yl]piperidine-2,6-dione]
DC50 [1]: > 20000 nM
DC50 [2]: 25 nM

O=C1CCC(N2Cc3cc(-c4ncc5ccccc5n4)ccc3C2=O)C(=O)N1 (centres unmarked) [Example 9, 3-[1-oxo-5-(quinazolin-2-yl)-2,3-dihydro-1H-isoindol-2-yl]piperidine-2,6-dione]
DC50 [1]: > 20000 nM
DC50 [2]: 27 nM

O=C1CCC(N2Cc3cc(-c4nccc5c4ccn5Cc4ccccc4)ccc3C2=O)C(=O)N1 (centres unmarked) [Example 161, 3-(5-(1-benzyl-1H-pyrrolo[3,2-c]pyridin-4-yl)-1-oxoisoindolin-2-yl)piperidine-2,6-dione]
DC50 [1]: 90 nM
DC50 [2]: 20 nM

Nc1cc(N2CCN(Cc3ccccc3)CC2)cc(-c2ccc3c(c2)CN(C2CCC(=O)NC2=O)C3=O)n1 (centres unmarked) [Example 184, 3-(5-(6-amino-4-(4-benzylpiperazin-1-yl)pyridin-2-yl)-1-oxoisoindolin-2-yl) piperidine-2,6-dione]
DC50 [1]: ≥ 10000 nM
DC50 [2]: ≥ 10000 nM

O=C1CCC(N2Cc3cc(-c4cnc5cc(F)ccc5n4)ccc3C2=O)C(=O)N1 (centres unmarked) [Example 26, 3-[5-(6-fluoroquinoxalin-2-yl)-1-oxo-2,3-dihydro-1H-isoindol-2-yl]piperidine-2,6-dione]
DC50 [1]: > 20000 nM
DC50 [2]: 98 nM

O=C1CCC(N2Cc3cc(-c4cc(-c5ccccc5)c5ccccc5n4)ccc3C2=O)C(=O)N1 (centres unmarked) [Example 13, 3-[1-oxo-5-(4-phenylquinolin-2-yl)-2,3-dihydro-1H-isoindol-2-yl]piperidine-2,6-dione]
DC50 [1]: > 20000 nM
DC50 [2]: 750 nM

CCNc1cc(C)cc(-c2ccc3c(c2)CN(C2CCC(=O)NC2=O)C3=O)n1 (centres unmarked) [Example 188, 3-(5-(6-(Ethylamino)-4-methylpyridin-2-yl)-1-oxoisoindolin-2-yl)piperidine-2,6-dione]
DC50 [1]: ≥ 10000 nM
DC50 [2]: 40 nM

O=C1CCC(N2Cc3cc(-c4ccc5cccc(Cl)c5n4)ccc3C2=O)C(=O)N1 (centres unmarked) [Example 34, 3-[5-(8-chloroquinolin-2-yl)-1-oxo-2,3-dihydro-1H-isoindol-2-yl]piperidine-2,6-dione]
DC50 [1]: > 20000 nM
DC50 [2]: 70 nM

COc1nc2ccccc2nc1-c1ccc2c(c1)CN(C1CCC(=O)NC1=O)C2=O (centres unmarked) [Example 94, 3-(5-(3-methoxyquinoxalin-2-yl)-1-oxoisoindolin-2-yl)piperidine-2,6-dione]
DC50 [1]: ≥ 20000 nM
DC50 [2]: 1070 nM

CCOC(=O)c1nc2ccccc2nc1-c1ccc2c(c1)CN(C1CCC(=O)NC1=O)C2=O (centres unmarked) [Example 30, ethyl 3-[2-(2,6-dioxopiperidin-3-yl)-1-oxo-2,3-dihydro-1H-isoindol-5-yl]quinoxaline-2-carboxylate]
DC50 [1]: > 20000 nM
DC50 [2]: > 20000 nM

Nc1nc(-c2ccc3c(c2)CN([C@H]2CCC(=O)NC2=O)C3=O)cc2ccccc12 [Example 82, (3S)-3-[5-(1-aminoisoquinolin-3-yl)-1-oxo-2,3-dihydro-1H-isoindol-2-yl]piperidine-2,6-dione]
DC50 [1]: ≥ 20000 nM
DC50 [2]: 4 nM

CCOc1c(-c2ccc3c(c2)CN(C2CCC(=O)NC2=O)C3=O)nc(Cl)c2ccccc12 (centres unmarked) [Example 86, 3-(5-(1-chloro-4-ethoxyisoquinolin-3-yl)-1-oxoisoindolin-2-yl)piperidine-2,6-dione]
DC50 [1]: 190 nM
DC50 [2]: 50 nM

O=C1CCC(N2Cc3cc(-c4cc5c(ccn5Cc5ccccc5)cn4)ccc3C2=O)C(=O)N1 (centres unmarked) [Example 158, 3-(5-{1-Benzyl-1H-pyrrolo[3,2-c]pyridin-6-yl}-1-oxo-2,3-dihydro-1H-isoindol-2-yl) piperidine-2,6-dione]
DC50 [1]: ≥ 10000 nM
DC50 [2]: 20 nM

Nc1cc(CCl)cc(-c2ccc3c(c2)CN(C2CCC(=O)NC2=O)C3=O)n1 (centres unmarked) [Example 135, 3-{5-[6-amino-4-(chloromethyl)pyridin-2-yl]-1-oxo-2,3-dihydro-1H-isoindol-2-yl}piperidine-2,6-dione]
DC50 [1]: ≥ 10000 nM
DC50 [2]: 230 nM

CN(C)C(=O)c1c(-c2ccc3c(c2)CN(C2CCC(=O)NC2=O)C3=O)nc(N)c2ccccc12 (centres unmarked) [Example 130, 1-amino-3-[2-(2,6-dioxopiperidin-3-yl)-1-oxo-2,3-dihydro-1H-isoindol-5-yl]-N,N-dimethylisoquinoline-4-carboxamide]
DC50 [1]: ≥ 20000 nM
DC50 [2]: 450 nM

Nc1cc(C(F)(F)F)cc(-c2ccc3c(c2)CN(C2CCC(=O)NC2=O)C3=O)n1 (centres unmarked) [Example 120, 3-(5-(6-amino-4-(trifluoromethyl)pyridin-2-yl)-1-oxoisoindolin-2-yl)piperidine-2,6-dione]
DC50 [1]: ≥ 10000 nM
DC50 [2]: 70 nM

CN1CCc2nc(-c3ccc4c(c3)CN(C3CCC(=O)NC3=O)C4=O)ccc2C1=O (centres unmarked) [Example 92, 3-(5-(6-methyl-5-oxo-5,6,7,8-tetrahydro-1,6-naphthyridin-2-yl)-1-oxoisoindolin-2-yl)piperidine-2,6-dione]
DC50 [1]: ≥ 20000 nM
DC50 [2]: 1500 nM

Nc1nc2ccccc2nc1-c1ccc2c(c1)CN(C1CCC(=O)NC1=O)C2=O (centres unmarked) [Example 5, 3-[5-(3-aminoquinoxalin-2-yl)-1-oxo-2,3-dihydro-1H-isoindol-2-yl]piperidine-2,6-dione]
DC50 [1]: > 20000 nM
DC50 [2]: > 20000 nM

COc1ccc(N)nc1-c1ccc2c(c1)CN(C1CCC(=O)NC1=O)C2=O (centres unmarked) [Example 106, 3-(5-(6-amino-3-methoxypyridin-2-yl)-1-oxoisoindolin-2-yl)piperidine-2,6-dione]
DC50 [1]: ≥ 20000 nM
DC50 [2]: 20 nM

C[Si](C)(C)CCn1nnc2c(-c3ccc4c(c3)CN(C3CCC(=O)NC3=O)C4=O)nc(N)nc21 (centres unmarked) [Example 42, 3-(5-{5-amino-3-[2-(trimethylsilyl)ethyl]-3H-[1,2,3]triazolo[4,5-d]pyrimidin-7-yl}-1-oxo-2,3-dihydro-1H-isoindol-2-yl)piperidine-2,6-dione]
DC50 [1]: 3600 nM
DC50 [2]: 110 nM

Nc1nc(-c2ccc3c(c2)CN([C@@H]2CCC(=O)NC2=O)C3=O)cc2ccccc12 [Example 83, (3R)-3-[5-(1-aminoisoquinolin-3-yl)-1-oxo-2,3-dihydro-1H-isoindol-2-yl]piperidine-2,6-dione]
DC50 [1]: ≥ 20000 nM
DC50 [2]: 30 nM

O=C1CCC(N2Cc3cc(-c4ccc5c(n4)NCCC5)ccc3C2=O)C(=O)N1 (centres unmarked) [Example 137, 3-[1-oxo-5-(5,6,7,8-tetrahydro-1,8-naphthyridin-2-yl)-2,3-dihydro-1H-isoindol-2-yl]piperidine-2,6-dione]
DC50 [1]: ≥ 10000 nM
DC50 [2]: 10 nM

O=C1CCC(N2Cc3cc(-c4ncc(F)c5[nH]ccc45)ccc3C2=O)C(=O)N1 (centres unmarked) [Example 11, 3-(5-{7-fluoro-1H-pyrrolo[3,2-c]pyridin-4-yl}-1-oxo-2,3-dihydro-1H-isoindol-2-yl)piperidine-2,6-dione]
DC50 [1]: 97 nM
DC50 [2]: 42 nM

NC(=O)c1nc(-c2ccc3c(c2)CN([C@H]2CCC(=O)NC2=O)C3=O)cc2ccccc12 [Example 126, 3-{2-[(3S)-2,6-dioxopiperidin-3-yl]-1-oxo-2,3-dihydro-1H-isoindol-5-yl}isoquinoline-1-carboxamide]
DC50 [1]: ≥ 20000 nM
DC50 [2]: 2990 nM

Nc1nc(-c2ccc3c(c2)CN(C2CCC(=O)NC2=O)C3=O)nc2ccccc12 (centres unmarked) [Example 22, 3-[5-(4-aminoquinazolin-2-yl)-1-oxo-2,3-dihydro-1H-isoindol-2-yl]piperidine-2,6-dione]
DC50 [1]: > 20000 nM
DC50 [2]: 8 nM

N#Cc1ccnc(-c2ccc3c(c2)CN(C2CCC(=O)NC2=O)C3=O)c1 (centres unmarked) [Example 110, 2-(2-(2,6-dioxopiperidin-3-yl)-1-oxoisoindolin-5-yl) isonicotinonitrile]
DC50 [1]: ≥ 10000 nM
DC50 [2]: 880 nM

Nc1cc2ccccc2c(-c2ccc3c(c2)CN(C2CCC(=O)NC2=O)C3=O)n1 (centres unmarked) [Example 25, 3-[5-(3-aminoisoquinolin-1-yl)-1-oxo-2,3-dihydro-1H-isoindol-2-yl]piperidine-2,6-dione]
DC50 [1]: 8400 nM
DC50 [2]: 48 nM
